Data from ChEMBL document CHEMBL1148436, “Structural determinants for high 5-HT(2A) receptor affinity of spiro[9,10-dihydroanthracene]-9,3(')-pyrrolidine (SpAMDA)” (Bioorg Med Chem Lett, 2004).

Assays:
[1] = molecular target: T1, 5-hydroxytryptamine receptor 2C (Homo sapiens, UniProt P28335); assay: Binding affinity towards 5-hydroxytryptamine 2C receptor using [3H]mesulergine as radioligand
T1 sequence (P28335 whole entry): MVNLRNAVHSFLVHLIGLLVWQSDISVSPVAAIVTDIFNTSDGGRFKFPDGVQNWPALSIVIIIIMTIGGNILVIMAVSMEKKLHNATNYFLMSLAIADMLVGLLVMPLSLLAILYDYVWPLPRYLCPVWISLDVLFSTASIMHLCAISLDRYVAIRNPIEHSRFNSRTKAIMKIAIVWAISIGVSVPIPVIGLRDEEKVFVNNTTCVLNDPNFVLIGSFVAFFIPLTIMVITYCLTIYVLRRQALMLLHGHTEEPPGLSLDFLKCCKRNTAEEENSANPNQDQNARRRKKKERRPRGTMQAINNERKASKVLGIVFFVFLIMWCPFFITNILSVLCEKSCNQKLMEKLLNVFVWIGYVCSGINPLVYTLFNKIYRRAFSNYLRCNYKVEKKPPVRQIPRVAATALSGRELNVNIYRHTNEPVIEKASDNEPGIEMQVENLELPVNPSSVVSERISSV

[2] = molecular target: 5-hydroxytryptamine receptor 2A (Homo sapiens, UniProt P28223); assay: Binding affinity towards 5-hydroxytryptamine 2A receptor using [3H]ketanserin
[3] = molecular target: Sodium-dependent noradrenaline transporter (Homo sapiens, UniProt P23975); assay: Binding affinity towards Norepinephrine transporter using [3H]nisoxitine as radioligand
[4] = molecular target: Sodium-dependent serotonin transporter (Homo sapiens, UniProt P31645); assay: Binding affinity towards Serotonin transporter using [3H]paroxetine as radioligand

SMILES: CN1CCC(=C2c3ccccc3C=Cc3ccccc32)CC1 [CYPROHEPTADINE]
- Ki [1]: 11 nM

SMILES: c1ccc2c(c1)CCCC21CCNC1 (stereo not drawn)
- Ki [2]: > 10000 nM

SMILES: c1ccc2c(c1)CCc1ccccc1C21CCNC1
- Ki [2]: 110 nM

SMILES: c1ccc2c(c1)Cc1ccccc1C21CCNC1
- Ki [3]: 10000 nM
- Ki [4]: 3900 nM

SMILES: c1ccc(C2(c3ccccc3)CCNC2)cc1
- Ki [2]: 4610 nM

SMILES: c1ccc2c(c1)Cc1ccccc1C21CCCNC1
- Ki [2]: 99 nM

SMILES: CN(C)CCCN1c2ccccc2CCc2ccccc21 [IMIPRAMINE]
- Ki [1]: 160 nM
